{
  "source": "patent US7412284B2",
  "about": "“Apparatus for electroporation mediated delivery for drugs and genes” (Genetronics, Inc., priority 1997, dated 2008)",
  "key": {"[1]": {"tested_on": "PC-3 (human prostate cell line)", "assay": "MedPulser 4 vs 6 needle array in vitro, XTT cell survival", "format": "cell-based", "conditions": "bleomycin at 2×10^5 M, 20 hours", "experimental": "Experiments were carried out to compare the efficacy of 6 vs. 4 needle array with MedPulser™ on PC-3 (human prostate cell line) in vitro. Cells were suspended in RPMI media and seeded uniformly at 200,000 cells/ml. Bleomycin at […] was added to the wells (for D+E− and D+E+ only). Cells were electroporated in 24 well plates using the 6-needle and 4-needle array electrodes connected to the MedPulser. The electropulse parameters were 6×99 μs, 1129 V with the 6-needle array and 4×99 μs, 848 V with the 4-needle array. The cells were transferred to 96 well plates and incubated for 20 hours at 37° C. The cell survival was determined using XTT assay which is based on metabolic conversion of XTT to formazan and is measured spectrophotometrically at 450 nm. Only the cells which are live convert XTT to formazan. The percent cell survival values are relative values calculated from the O.D. values of the sample, a control with 100% cell survival (D−E−) and control with 0% cell survival (D−E− with SDS, which lyses all cells)."}, "[2]": {"tested_on": "non-small cell lung cancer cell line (NSCLC), 177", "assay": "EPT with bleomycin of NSCLC xenografts in nude mice", "format": "in vivo"}, "[3]": {"tested_on": "Human pancreatic xenograft (Panc-4)", "assay": "EPT using MedPulser and bleomycin, Panc-4 xenograft", "format": "in vivo, nude mice", "conditions": "up to day 39 of observation", "from_the_text": "(§1) Preliminary experiments using MedPulser™ (apparatus of the invention) for treatment of tumor xenografts grown subcutaneously onto nude mice have shown encouraging results. […] Treatment of human prostate xenografts (PC-3) has also shown about 66% complete regression of tumors. (No tumors observed up to 60 days after treatment). Both 4 and 6 needle array are effective in treatment of tumors by EPT."}, "[4]": {"tested_on": "human prostate xenografts (PC-3)", "assay": "EPT using MedPulser, PC-3 xenograft", "format": "in vivo, nude mice", "conditions": "no tumors observed up to 60 days after treatment", "from_the_text": "as §1"}},
  "data": [
    {"substance": "bleomycin", "values": [
      {"measurement": "Avg. % Survival", "setting": "[1]; D + E + (4N), 4×99 μs, 848 V, 4-needle array", "value": 4.78, "unit": "%"},
      {"measurement": "Avg. % Survival", "setting": "[1]; D + E + (6N), 6×99 μs, 1129 V, 6-needle array", "value": "−4.12", "unit": "%"},
      {"measurement": "Avg. % Survival", "setting": "[1]; D + E −, no pulse", "value": 27.71, "unit": "%"},
      {"measurement": "EPT treatment result", "setting": "[2]; bleomycin + EPT, NSCLC xenograft", "value": "very encouraging results"},
      {"measurement": "tumor after retreatment", "setting": "[2]; recurred tumor retreated at day 27, after 7 days", "value": "no evidence of tumor"},
      {"measurement": "mice with complete tumor regression", "setting": "[3]", "value": "about 75%"},
      {"measurement": "complete regression of tumors", "setting": "[4]", "value": "about 66%"}
    ]}
  ]
}
